From patent US20190284192A1, “NITROGENOUS MACROCYCLIC COMPOUND, PREPARATION METHOD THEREFOR, PHARMACEUTICAL COMPOSITION AND APPLICATION THEREOF” (LUOXIN PHARMACEUTICAL (SHANGHAI) CO., LTD., priority 2016, published 2019)

Columns and labels:
MV-4-11 cells = assay: Inhibitory effect on MV-4-11 cells (CellTiter-Glo); type: cell-based; conditions: Homo sapiens, MV4-11; 72 hours, CellTiter-Glo; read-out: MV-4-11
Experimental: The 1st Day: Seed the Cells on the Plate
1. The cells were verified that they were in good conditions by observation under microscope;
2. The cells were transferred to a 15 mL centrifuge tube, after centrifuged at 1000 rpm for 5 min, the supernatant was discarded;
3. The complete medium (IMDM+10% FBS) was added, then blown and patted into single cell suspension, counted by Vi-cell cytometer, the cell suspension was adjusted to desired cell density by the complete medium.
4. The cells were inoculated into a 96 well plate, the cell number was 15000/well at 100 μL per well, 100 μL complete medium was added into the black control.
5. 37° C., 5% CO2 culture overnight.
The 2nd Day: Addition of the Drugs
1. 1000× Compound Plate Preparation
1.1. The test compound was prepared into 10 mM working solution by using DMSO. Then the STS was prepared into 2 mM working solution by using DMSO.
1.2. In the round bottom 96 wells plate, the column 2 of row A to H was added into 60 μL 10 mM test compound (or STS) working solution, columns 3-11 were added into 40 μL DMSO, 20 μL drug solution was pipetted from the column 2 to the column 3, blown and patted for a homogeneous mixture; then 20 μL solution was pipetted from the column 3 to the column 4, blown and patted for a homogeneous mixture, sequently, the drug was diluted by 3 times, 10 concentrations in total. The columns 1 and 12 were supplemented with 40 μL of DMSO.
2. Intermediate plate areparation
A sterile V-bottom 96 deep well plate was used and in each well, 495 μL FBS-free PRMI 1640 medium was added, then 5 μL of the diluted compound (or DMSO) in the 1000× compound plate was pipetted into corresponding position of the V-bottom 96 well plate, blown and patted evenly.
3.1. The cell plate was taken out from the incubator and was observed under microscope. The diluted compound or DMSO in the intermediate plate was added into the cell plate, 11 μL each well.
3.2. The cell was continued to be cultured at 37° C., 5% CO2 for 72 hours.
The 5th Day: CellTiter-Glo Detection of the Cell Activity
1. The CellTiter-Glo buffer and the reaction substrate were taken out from the refrigerator, after balanced to r.t., the buffer was poured into a brown bottle containing the substrate, the bottle was upside down to have the substrate powder sufficientaly dissolved.
2. The cell was observed under microscope; the cell plate was balanced to r.t.
3. The prepared CellTiter-Glo was added into the 96 well plate, at 100 μL/well.
4. The cell plate was placed on a shaker for 10 min, followed by standing at r.t. for 10 min.
5. A white seal film was attached to the bottom of the well plate, and the chemiluminescence signal of each well was detected by the Enspire microplate detector.
6. XLfit was used for data processing. Inhibition rate %=(d−c)/(d−b)×100, while d is the signal value of the DMSO treated group, c is the signal value of the compound treated group, b is signal value of the blank control that only containing medium and DMSO without cells. The data was fitted using the f(x)205[fit=(A+((B−A)/(1+((C/x)^∧D))))] equation in the XLfit software.

BRD4 (BD2) = target: T1, BRD4 (BD2) (Homo sapiens, UniProt O60885); assay: BRD4 (BD2) bromodomain binding, HTRF; conditions: 2 h incubation at r.t.
T1 construct: Each member comprises two tandem bromodomains (BD1 and BD2) for recognizing the acetylated lysine residues

[1] = Metabolic stability in human liver microsomes; type: in vitro ADME; conditions: human liver microsomes 0.5 mg/mL, NADPH, 37° C.; for CLint scaled at 1 µM: pH 7.4, read-out: HLM_CLint
Experimental: (§1) Determinations of the metabolic stability of the compound from the above embodiments, the detailed operation steps are as followed:
(§2) 1. Preparation of buffer C:
(§3) Buffer A: 1.0 L of 0.1 M potassium dihydrogen phosphate buffer (containing 1.0 mM EDTA);
(§4) Buffer B: 1.0 L of 0.1 M dipotassium hydrogen phosphate buffer (containing 1.0 mM EDTA);
(§5) Buffer C: 500 mL Buffer B was titrated with Buffer A to pH 7.4.
(§6) 2. 10 mM stock solution preparation:
(§7) 10 mM test compound: A certain amount of the test compound was weighed and dissolved in DMSO.
(§8) 10 mM control: 5.455 mg of ketanserin dissolved in 1 mL DMSO.
(§9) 3. Preparation of the drug solution:
(§10) 500 μM solution: 5 μL of 10 mM stock solution (see step 2) was added into 95 μL ACN;
(§11) 1.5 μM dosing solution (dissolved in liver microsome solution):
(§12) 18.75 μL of 20 mg/mL liver microsomes was added into 479.75 μL of Buffer C, then 1.5 μL of 500 μM solution was added and mixed gently by shaking.
(§13) 4. Preparation of 6 mM NADPH solution:
(§14) 15 mg NADPH was weighted, then added into 3 mL of buffer C to prepare a 6 mM NADPH solution.
(§15) 5. 30 µL of 1.5 μM dosing solution (see step 3) was added into the wells of the 96-well plate set at different time points (0 minutes, 5 minutes, 15 minutes, 30 minutes, 45 minutes), number of dulplicate sample is 2.
(§16) 6. Preparation of a 0 minutes sample: 135 μL ACN (with internal standard) was added to the 0 minutes well, followed by 15 µL of 6 mM NADPH solution.
(§17) 7. The 96-well plate containing 1.5 μM dosing solution and NADPH solution were preheated in a 37° C. water bath for 5 minutes.
(§18) 8. The 15 µL of 6 mM NADPH solution preheated was added into the wells set to 5 minutes, 15 minutes, 30 minutes, 45 minutes, then the reaction was initiated and started counting the time.
(§19) 10. The sample was vortexed for 10 min, and then centrifuged for 15 minutes on a centrifuge (Thermo Multifuge×3R) using 5594×g.
(§20) 11. 50 μL of the supernatant was taken from the centrifuged sample, transferred to a 96-well sample plate to which 100 μL of ultrapure water had already been added, mixed, and finally sent to LC-MS/MS for analysis.
(§21) Half time (T1/2)=0.693/K (K is the rate constant obtained by linear regression of the logarithm of the concentration as vertical coordinates and the culturing time as the abscissa)
(§22) 2. According to the equation formula bellow, Excel was used to plot the compound content versus reaction time, as well as half life calculation (min)
(§23) Y=(Y0−Plateau)×e^(−K*X)+Plateau
(§24) Y0 represents the compound content at 0 minutes; Y represents the compound content; X represents the time point; K represents degration rate constant of the compound; Plateau represents the lowest possible content of the compound (defined herein as 0).

[2] = Metabolic stability in mouse liver microsomes; type: in vitro ADME; conditions: mouse liver microsomes 0.5 mg/mL, NADPH, 37° C.; for CLint scaled at 1 µM: pH 7.4, read-out: MLM_CLint
Experimental: as §1, §2, §3, §4, §5, §6, §7, §8, §9, §10, §11, §12, §13, §14, §15, §16, §17, §18, §19, §20, §21, §22, §23, §24

BRD4 (BD1) = target: T2, BRD4 (BD1) (Homo sapiens, UniProt O60885); assay: BRD4 (BD1) bromodomain binding, HTRF; conditions: 2 h incubation at r.t.
T2 construct: Each member comprises two tandem bromodomains (BD1 and BD2) for recognizing the acetylated lysine residues

Row | IC50 (MV-4-11 cells) [nM] | IC50 (BRD4 (BD2)) [nM] | HLM_T1/2 [1] [min] | CLint scaled at 1 µM [1] [mL/min/kg] | MLM_T1/2 [2] [min] | CLint scaled at 1 µM [2] [mL/min/kg] | IC50 (BRD4 (BD1)) [nM] | Compound
1 | 80 | 2 | 1473.23 | 1.18 | 1568.22 | 3.48 | 4 | CCS(=O)(=O)Cc1ccc2c(c1)-c1cn(C)c(=O)cc1CN=C2c1ccc(F)cc1F [Compound 4012, 7-(2,4-difluorophenyl)-2-methyl-10-(ethylsulfonemethyl)-2H-benzo[c]pyrido[3,4-e]azepin-3(5H)-ketone]
2 | 16 | 1 | 34.22 | 50.8 | 21.37 | 255 | 3 | CCNC(=O)C[C@@H]1N=C(c2ccc(Cl)cc2)c2ccccc2-c2cn(C)c(=O)cc21 [Compound 4016, (S)-2-(7-(4-chlorophenyl)-2-methyl-3-oxo-3,5-dihydro-2H-benzo[c]pyrido[3,4-e]azepin-5-yl)-N-ethylacetamide]
3 | 10 | 2 | 854.27 | 2.03 | 215.28 | 25.4 | 4 | Cn1cc2c(cc1=O)[C@H](CC(N)=O)N=C(c1ccc(Cl)cc1)c1ccccc1-2 [Compound 4017, (S)-2-(7-(4-chlorophenyl)-2-methyl-3-oxo-3,5-dihydro-2H-benzo[c]pyrido[3,4-e]azepin-5-yl)acetamide]
4 | 9 | 1 | 121.24 | 14.3 | 75.05 | 72.7 | 3 | CCNC(=O)C[C@@H]1N=C(c2ccc(F)cc2)c2cc(OC)ccc2-c2cn(C)c(=O)cc21 [Compound 4023, (S)—N-ethyl-2-(7-(4-fluorophenyl)-9-methoxy-2-methyl-3-oxo-3,5-dihydro-2H-benzo[c]pyrido[3,4-e]azepin-5-yl)acetamide]
5 | 3 | 1 |  |  |  |  | 2 | C[C@@H]1N=C(c2ccc(F)cc2)c2cc(Cl)c(NS(=O)(=O)C3CC3)cc2-c2cn(C)c(=O)cc21 [Compound 4080, (S)—N-(9-chloro-7-(4-flurophenyl)-2,5-dimethyl-3-oxo-3,5-dihydro-2H-benzo[c]pyrido[3,4-e]azepin-10-yl)cyclopropylsulfamide]
6 | 11 | 1 |  |  |  |  | 2 | CCS(=O)(=O)Cc1ccc2c(c1)-c1cn(C)c(=O)cc1C(COC)N=C2c1ccc(F)cc1 (stereo not shown) [Compound 4082, 10-((ethylsulfonyl)methyl)-7-(4-flurophenyl)-5-(methoxylmethyl)-2-methyl-2,5-dihydro-3H-benzo[c]pyrido[3,4-e]azepin-3-ketone]
7 | 31 | 4 |  |  |  |  | 8 | CCC(=O)Nc1cc2c(cc1F)C(c1ccc(F)cc1)=N[C@@H](C)c1cc(=O)n(C)cc1-2 [Compound 4083, (S)—N-(9-fluoro-7-(4-flurophenyl)-2,5-dimethyl-3-oxo-3,5-dihydro-2H-benzo[c]pyrido[3,4-e]azepin-10-yl)propanamide]
8 | 0.5 | 1 |  |  |  |  | 2 | CCS(=O)(=O)Nc1cc2c(cc1F)C(c1ccc(F)cc1)=N[C@@H](C1CC1)c1cc(=O)n(C)cc1-2 [Compound 4084, (S)—N-(5-cyclopropyl-9-fluoro-7-(4-flurophenyl)-2-methyl-3-oxo-3,5-dihydro-2H-benzo[c]pyrido[3,4-e]azepin-10-yl)ethylsulfonamide]
9 | 4 | 1 |  |  |  |  | 2 | CCS(=O)(=O)Cc1cc2c(cc1F)C(c1ccc(F)cc1)=N[C@@H](C)c1cc(=O)n(C)cc1-2 [Compound 4085, (S)-10-((ethylsulfonyl)methyl)-9-fluoro-7-(4-flurophenyl)-2,5-dimethyl-2,5-dihydro-3H-benzo[c]pyrido[3,4-e]azepin-3-ketone]
10 | 3 | 1 |  |  |  |  | 2 | CCS(=O)(=O)Cc1cc2c(cc1Cl)C(c1ccc(F)cc1)=N[C@@H](C)c1cc(=O)n(C)cc1-2 [Compound 4086, (S)-9-chloro-10-((ethylsulfonyl)methyl)-7-(4-flurophenyl)-2,5-dimethyl-2,5-dihydro-3H-benzo[c]pyrido[3,4-e]azepin-3-ketone]
11 | 26 | 1 |  |  |  |  | 4 | CCS(=O)(=O)Cc1ccc2c(c1)-c1cn(C)c(=O)cc1[C@H](C)N=C2c1ccc(F)cc1OC [Compound 4087, (S)-10-((ethylsulfonyl)methyl)-7-(4-fluoro-2-methoxylphenyl)-2,5-dimethyl-2,5-dihydro-3H-benzo[c]pyrido[3,4-e]azepin-3-ketone]
12 | 26 | 1 |  |  |  |  | 3 | CCS(=O)(=O)Cc1ccc2c(c1)-c1cn(C)c(=O)cc1[C@H](CCO)N=C2c1ccc(F)cc1 [Compound 4088, (S)-10-((ethylsulfonyl)methyl)-7-(4-flurophenyl)-5-(2-hydroxyethyl)-2-methyl-2,5-dihydro-3H-benzo[c]pyrido[3,4-e]azepin-3-ketone]
13 | 108 | 4 |  |  |  |  | 8 | CCS(=O)(=O)Cc1ccc2c(c1)-c1cn(C)c(=O)cc1CN=C2c1ccc(F)c(OC)c1 [Compound 4089, 10-((ethylsulfonyl)methyl)-7-(4-fluoro-3-methoxylphenyl)-2-methyl-2,5-dihydro-3H-benzo[c]pyrido[3,4-e]azepin-3-ketone]
14 | 3 | 1 |  |  |  |  | 1 | CNS(=O)(=O)C(C)(C)c1ccc2c(c1)-c1cn(C)c(=O)cc1[C@H](C)N=C2c1ccc(F)cc1 [Compound 4090, (S)-2-(7-(4-flurophenyl)-2,5-dimethyl-3-oxo-3,5-dihydro-2H-benzo[c]pyrido[3,4-e]azepin-10-yl)-N-methylpropane-2-sulfamide]
15 | 3 | 0.7 |  |  |  |  | 1 | CNS(=O)(=O)C(C)c1ccc2c(c1)-c1cn(C)c(=O)cc1[C@H](C)N=C2c1ccc(F)cc1 (stereo partly drawn) [Compound 4091, 1-((S)-7-(4-flurophenyl)-2,5-dimethyl-3-oxo-3,5-dihydro-2H-benzo[c]pyrido[3,4-e]azepin-10-yl)-N-methylethane-1-sulfamide]
16 | 3 | 0.6 |  |  |  |  | 1 | CCS(=O)(=O)Nc1cc2c(cc1F)C(c1ccc(F)cc1)=NN(C)c1cc(=O)n(C)cc1-2 [Compound 4092, N-(9-fluoro-7-(4-flurophenyl)-2,5-dimethyl-3-oxo-3,5-dihydro-2H-benzo[e]pyrido[4,3-c][1,2]diazepin-10-yl)ethylsulfonamide]
17 | 17 | 0.7 |  |  |  |  | 5 | CCS(=O)(=O)Cc1ccc2c(c1)-c1cn(C)c(=O)cc1N(C)N=C2c1ccc(F)cc1Cl [Compound 4093, 7-(2-chloro-4-flurophenyl)-10-((ethylsulfonyl)methyl)-2,5-dimethyl-2,5-dihydro-3H-benzo[e]pyrido[4,3-c][1,2]diazepin-3-ketone]
18 | 49 | 2 |  |  |  |  | 3 | CCS(=O)(=O)Cc1cc2c(cc1OC)C(c1ccc(F)cc1)=NCc1cc(=O)n(C)cc1-2 [Compound 4094, 10-((Ethylsulfonyl)methyl)-7-(4-flurophenyl)-9-methoxyl-2-methyl-2,5-dihydro-3H-benzo[c]pyrido[3,4-e]azepin-3-ketone]
19 | 14 | 2 |  |  |  |  | 5 | CCS(=O)(=O)Nc1cc2c(cc1F)C(c1ccc(F)cc1)=NC(C)c1cc(=O)n(C)nc1-2 (stereo not shown) [Compound 4095, N-(9-Fluoro-7-(4-flurophenyl)-2,5-dimethyl-3-oxo-3,5-dihydropyridin-2H-benzo[c]pyridazino[3,4-e]azepin-10-yl)ethylsulfonamide]
